Where “and” joins values, the source holds several entries; their conditions need not be identical. Equal entries are not always repeated. Square brackets hold non-standard residues; d marks the D form. Peptide text beside a SMILES is read from it. Arg(Me) = CNC(=N)NCCC[C@H](N)C(=O)O; d4Pal = N[C@H](Cc1ccncc1)C(=O)O; azaGly = NNC(=O)O
Tests used:
Type in all cases: functional, Homo sapiens
Set-up in all cases: dose or concentration left out as unconfirmed
Colon cancer organoid [1] = experiment: Optimized Dual-Glo assay to identify co-culture induced drug vulnerabilities using donated chemical probes and chemogenomics kinase set in O06 CRC organoid and F06 CAF mono and co-culture. […] Cell viability is reported both mono and co-culture models.
Colon cancer organoid [2] = experiment: Optimized Dual-Glo assay to identify co-culture induced drug vulnerabilities using donated chemical probes and chemogenomics kinase set in O20 CRC organoid and F20 CAF mono and co-culture. […] Cell viability is reported both mono and co-culture models.
Colon cancer organoid [3] = experiment: Optimized Dual-Glo assay to identify co-culture induced drug vulnerabilities using donated chemical probes and chemogenomics kinase set in O14 CRC organoid and F14 CAF mono and co-culture. […] Cell viability is reported both mono and co-culture models.
[4] = Culture type Co-Culture, Transduced with Lucferase2-P2A-EGFP lentivirus
[5] = Culture type Co-Culture, Transduced with Renilla-dsRed lentivirus
[6] = Culture type Mono-Culture, Transduced with Lucferase2-P2A-EGFP lentivirus
[7] = Culture type Mono-Culture, Transduced with Renilla-dsRed lentivirus

SMILES | Cell Viability (Colon cancer organoid [1]; [4]) | Cell Viability (Colon cancer organoid [1]; [5]) | Cell Viability (Colon cancer organoid [1]; [6]) | Cell Viability (Colon cancer organoid [1]; [7]) | Cell Viability (Colon cancer organoid [2]; [4]) | Cell Viability (Colon cancer organoid [2]; [5]) | Cell Viability (Colon cancer organoid [2]; [6]) | Cell Viability (Colon cancer organoid [2]; [7]) | Cell Viability (Colon cancer organoid [3]; [4]) | Cell Viability (Colon cancer organoid [3]; [5]) | Cell Viability (Colon cancer organoid [3]; [6]) | Cell Viability (Colon cancer organoid [3]; [7])
CCN(C(=O)CO)[C@H]1CN(/C(=N\C#N)Nc2cccc(OC(F)F)c2)N=C1c1ccc(Cl)c(Cl)c1 | 100.328% | 102.729% | 73.2581% | 127.729% | 98.0443% | 141.776% | 125.834% | 95.5224% | 96.421% | 116.48% | 90.9581% | 97.9735%
COc1cc(C)c(Sc2cnc(NC(=O)c3ccc(CNC(C)C(C)(C)C)cc3)s2)cc1C(=O)N1CCN(C(C)=O)CC1 (centres undefined) | 97.8632% | 73.4932% | 75.5351% | 54.8582% | 92.0383% | 97.5626% | 38.3034% | 78.8109% | 66.3781% | 81.9892% | 56.9877% | 80.9779%
Cc1ccc2nc(CNCCCOc3ccccc3)cc(O)c2c1 [UCSF924] | 107.729% | 156.395% | 110.04% | 105.774% | 114.798% | 125.381% | 97.5529% | 90.0539% | 83.703% | 116.782% | 86.6693% | 107.391%
C[C@@H](Oc1cc(-n2cnc3ccc(CN4CCN(C)CC4)cc32)sc1C(N)=O)c1ccccc1C(F)(F)F [GSK-461364] | 8.2073% | 127.3% | 6.274% | 91.647% | 36.0345% | 141.481% | 13.8424% | 71.1921% | 37.954% | 173.445% | 46.1468% | 90.9348%
Cc1c(N2CCNCC2)nc2ccc(Br)cc2c1C(=O)NC[C@H](CCC(=O)O)c1ccccc1Cl [BAY-403] | 78.4474% | 70.4581% | 95.2254% | 113.122% | 119.673% | 79.2483% | 97.0551% | 97.643% | 128.287% | 83.5136% | 111.567% | 88.9346%
CNC(=N)NCCC[C@H](NC(=O)[C@H](CC(C)C)NC(=O)NNC(=O)[C@H](Cc1ccccc1)NC(=O)[C@H](CO)NC(=O)[C@H](CC(N)=O)NC(=O)[C@@H](Cc1ccncc1)NC(=O)[C@H](N)Cc1ccc(O)cc1)C(=O)N[C@@H](Cc1ccccc1)C(N)=O [KISS1-305] (H-[dY][d4Pal]NSF[azaGly]L[Arg(Me)]F-NH2) | 104.031% | 118.904% | 114.891% | 119.718% | 118.72% | 125.679% | 103.004% | 99.3377% | 143.349% | 104.877% | 85.2761% | 111.321%
CC(=O)C1=C(C)N(c2cccc(C(F)(F)F)c2)C(=O)N[C@H]1c1ccc(C#N)nc1 [BAY-677] | 113.366% | 134.225% | 107.227% | 105.031% | 134.265% | 107.791% | 113.459% | 115.06% | 86.1981% | 131.912% | 107.006% | 91.8517%
CCOc1cn(-c2ccc(F)cc2C)nc1C(=O)Nc1ccc(Oc2ccnc3cc(OC)c(OC)cc23)c(F)c1 | 87.51% and 89.4828% | 84.5689% and 64.7371% | 86.2071% and 96.2779% | 101.871% and 88.7626% | 230.831% and 191.214% | 78.4446% and 96.4847% | 106.501% and 84.8653% | 96.6073% and 93.6855% | 102.771% and 90.3388% | 85.9243% and 77.553% | 131.662% and 123.945% | 95.388% and 87.085%
CC(C)(O)[C@H](F)CN1Cc2cc(NC(=O)c3cnn4cccnc34)c(N3CCOCC3)cc2C1=O | 120.796% | 89.8431% | 75.3772% | 93.3836% | 123.767% | 88.3121% | 99.4921% | 83.0265% | 134.835% | 74.5238% | 106.331% | 78.3332%
C=CC(=O)Nc1ccc2[nH]c(=O)n(C3CCN(Cc4ccc(-c5nc6cc[nH]c(=O)c6cc5-c5ccccc5)cc4)CC3)c2c1 [Borussertib] | 51.8578% | 132.383% | 55.1299% | 71.4174% | 47.4641% | 149.193% | 22.6881% | 97.2977% | 51.6115% | 159.043% | 54.7811% | 69.4418%
CCOC(=O)CCNc1cc(N2CCc3ccccc3CC2)nc(-c2cccnc2)n1 | 130.773% | 124.082% | 90.274% | 111.34% | 102.18% | 131.422% | 61.9891% | 99.1525% | 62.9469% | 109.109% | 99.8423% | 94.8955%
CN(C)C(=O)/C(C#N)=C/c1ccc(-c2nc3cnc4[nH]ccc4c3n2C2CCCCC2)o1 | 95.2227% | 96.9669% | 138.382% | 96.6584% | 75.2682% | 130.215% | 113.424% | 104.709% | 115.273% | 92.8472% | 120.035% | 91.5278%
CCc1cc(Nc2nccc(-c3c(-c4ccc(OC)c(C(=O)Nc5c(F)cccc5F)c4)nc4ccccn34)n2)c(OC)cc1N1CCC(N2CCN(S(C)(=O)=O)CC2)CC1 | 86.7992% | 78.7013% | 91.9397% | 111.569% | 116.043% | 82.2783% | 81.9449% | 100.572% | 94.7667% | 100.13% | 92.2589% | 95.6551%
CN(C)[C@@H]1CCN(c2cc(-c3ccccc3)nc3ccnn23)C1 [(R)-ZINC-3573] | 122.992% | 121.371% | 72.8757% | 94.4779% | 97.0418% | 99.7993% | 84.3174% | 93.0838% | 103.063% | 100.336% | 115.069% | 113.962%
CN(C)[C@H]1CN(C2CCc3cccc(F)c32)C[C@@H]1c1ccc(N2CCN(S(C)(=O)=O)CC2)cc1 (some centres undefined) | 82.1891% | 127.07% | 99.7479% | 137.803% | 31.8041% | 145.189% | 62.1102% | 96.7919% | 85.2853% | 124.227% | 108.249% | 110.303%
COc1cc(Nc2nc(C)cc(-c3cnn4nc(OC)ccc34)n2)cc(C(F)(F)F)c1 | 131.373% | 124.179% | 105.332% | 118.145% | 136.021% | 99.6244% | 133.384% | 109.532% | 103.629% | 105.362% | 103.076% | 99.2277%
CNCc1ccccc1-c1csc([C@@H](C)Nc2nc(C)nc3cc(OC)c(OC)cc23)c1 [BAY-293] | 76.9111% | 225.989% | 4.78% | 87.8539% | 78.2703% | 145.24% | 64.4683% | 82.7466% | 46.6211% | 132.811% | 47.2835% | 107.217%
